Assay results from patent US5766875A, “Metabolic monitoring of cells in a microplate reader” (priority 1995, dated 1998).
Counter-ions that a name gives are not always drawn. One block for each compound: values may come before it.

Experiments:
[1] = Redox Indicators; cited from earlier work
[2] = Apparent pH change with temperature of buffering systems as indicated by phenol red; type: physicochemical; conditions: phenol red pH indicator; 50 mM total buffer; equilibrium with CO2 in air

Compound: CN(C)c1ccc(N=C2C=CC(=O)C=C2)cc1 [N,N-Dimethylindoaniline]
- Potential at pHOa [1]: 0.22 Volts

Compound: COc1ccc(Nc2ccc(N)cc2)cc1 [N-(p-Methoxyphenyl)-p-phenylanediamine Hydrochloride]
- Potential at pHOa [1]: 0.71 Volts

Compound: O=C(O)c1ccccc1Nc1ccccc1 [N-Phenylanthranilic Acid]
- Potential at pHOa [1]: 1.08 Volts

Compound: Cc1cc2nc3ccc(N(C)C)cc3nc2cc1N [Neutral Red]
- Potential at pHOa [1]: -0.24 Volts

Compound: CC[N+](CC)=c1ccc2nc3c(cc(N)c4ccccc43)oc-2c1 [Nile Blue A]
- Potential at pHOa [1]: 0.29 Volts

- apparent change in pH with change in temperature [2]: -12.07 millipH/°C.
Compound: O=S(=O)(O)CCCNC(CO)(CO)CO [TAPS, 3-{[tris-(hydroxymethyl)-methyl]-amino}-propanesulfonicacid]

Compound: Nc1ccc2nc3ccc(N)cc3[s+]c2c1 [Thionin]
- Potential at pHOa [1]: 0.56 Volts

Compound: O=S(=O)([O-])[O-].[Fe+2].c1cnc2c(c1)ccc1cccnc12.c1cnc2c(c1)ccc1cccnc12.c1cnc2c(c1)ccc1cccnc12 [Tris(1,10-phenanthroline)Iron(R) Sulfate]
- Potential at pHOa [1]: 1.14 Volts

Compound: CCN=C1C=CC(=C(c2ccc(NCC)c(C)c2)c2ccc(S(=O)(=O)O)cc2S(=O)(=O)O)C=C1C [Xylene Cyanol FF]
- Potential at pHOa [1]: 1.00 Volts

Compound: Cc1cc(-c2ccc(N)c(C)c2)ccc1N [o-Tolidine]
- Potential at pHOa [1]: 0.87 Volts

Compound: CCOc1ccc(N=Nc2ccc(N)cc2N)cc1 [p-Ethoxyphenylazo-m-phenylanediamine Monohydrochloride]
- Potential at pHOa [1]: 0.76 Volts

Compound: Brilliant Cresyl Blue
- Potential at pHOa [1]: 0.58 Volts

Compound: Diphenylaminosulfonic Acid Sodium Salt
- Potential at pHOa [1]: 0.85 Volts

Compound: N,N-Diphenylbenzidine
- Potential at pHOa [1]: 0.76 Volts
